Measured values published in US8044035B2, “Pharmaceutical compositions of pyrimidine-2,4,6-triones” (priority 2004, dated 2011).
≈ marks a conversion by molar mass, not a printed value. Where two headings read alike, the source gives them in different places.

Experiment: Phase solubility studies of Compound I with cyclodextrins (excess compound, 7 days, 37° C., HPLC)
Assay type: physicochemical
Settings: for solubility at 7 days: 37 °C, thermodynamic from solid
Protocol: At the time of a complex formation, compound I, practically insoluble in water (<0.6 μg/ml, MW: 485), solubilizes dramatically. The increase in the solubility of compound I is thus proof of a complex formation between Compound I and the CD. Complex formation and achievement of the equilibrium is found at 20% after 1 day, 40% after 4 days, and 100% after 7 days. The solubility diagrams (FIG. 1) are carried out by adding an excess of compound I to the CD solutions of increasing concentration. After 7 days of stirring in thermostatically controlled baths at 37° C., these solutions are filtered and the solubilized compound I quantity is dosed by HPLC. The βCD and the γCD as well as their synthetic derivatives have allowed complexes with compound I to be formed. The β-CD and the HPβCD come from ROQUETTE (France), the RMβCD and the γCD have been supplied by Wacker (Germany).
The flasks containing compound I and the cyclodextrins are placed being stirred in thermostatically controlled baths at 37° C. for 7 days, so that the complexation balance is reached. After this time, the suspensions are filtered with the help of a milli-pore filter 0.22 μm in PVDF and the filtrate is dissolved in DMSO in the mobile phase to obtain concentration samples situating themselves on the calibrating line. They are then dosed thanks to the validated HPLC method, described below.
Mobile phase: mixture of phosphate buffer 0.05 M to pH=3 and methanol (30/70, v/v). Gas is extracted by an ultrasound passage for 15 minutes, output: 1 ml/min, λ of U.V. detection: 265 nm, Working temperature: 30° C., Injection volume: 20 μl.
The results of the HPLC dosages of Compound I are reproduced in the tables below (Tables 1 to 4) for each cyclodextrin.

**Q.** Which results are given for `O=C1NC(=O)C(c2ccc(-c3ccccc3)cc2)(N2CCN(c3ccc([N+](=O)[O-])cc3)CC2)C(=O)N1` [Compound I, 5-Biphenyl-4-yl-5-[4-(4-nitro-phenyl)-piperazin-1-yl]pyrimidine-2,4,6-trione]?
**A.** solubility at 7 days (HPβCD solution, aqueous with cosolvent or surfactant or cyclodextrin, HPβCD, maximum concentration used 200 mM, read-out: Maximum solubility): 4960 µg/mL (≈ 10200 µM); Concentration of Compound I (solubility) (RMβCD 10 mM, 37° C., 7 days): 120.6 µg/mL; solubility at 7 days (RMβCD solution, aqueous with cosolvent or surfactant or cyclodextrin, RMβCD, maximum concentration used 200 mM, read-out: Maximum solubility): 11900 µg/mL (≈ 24600 µM); Complex formation and achievement of the equilibrium (after 1 day): 20%; Complex formation and achievement of the equilibrium (after 4 days): 40%; Complex formation and achievement of the equilibrium (after 7 days): 100%; K1:1 (stability constant) (complex with HP-βCD): 12575 M⁻¹; K1:2 (stability constant) (complex with HP-βCD): 14.4 M⁻¹; K1:1 (stability constant) (complex with RMβCD): 27595 M⁻¹; K1:2 (stability constant) (complex with RMβCD): 22.88 M⁻¹; K1:1 (stability constant) (complex with βCD): 2092 M⁻¹; K1:1 (stability constant) (complex with γCD): 346 M⁻¹; solubility at 7 days (cyclodextrin solution, aqueous with cosolvent or surfactant or cyclodextrin, HPβCD 10 mM, 37° C., 7 days, read-out: Concentration of Compound I (solubility)): 188 µg/mL (≈ 387 µM); solubility at 7 days (cyclodextrin solution, aqueous with cosolvent or surfactant or cyclodextrin, HPβCD 25 mM, 37° C., 7 days, read-out: Concentration of Compound I (solubility)): 213 µg/mL (≈ 440 µM); solubility at 7 days (cyclodextrin solution, aqueous with cosolvent or surfactant or cyclodextrin, HPβCD 50 mM, 37° C., 7 days, read-out: Concentration of Compound I (solubility)): 236 µg/mL (≈ 486 µM); solubility at 7 days (cyclodextrin solution, aqueous with cosolvent or surfactant or cyclodextrin, HPβCD 75 mM, 37° C., 7 days, read-out: Concentration of Compound I (solubility)): 1130 µg/mL (≈ 2330 µM); solubility at 7 days (cyclodextrin solution, aqueous with cosolvent or surfactant or cyclodextrin, HPβCD 100 mM, 37° C., 7 days, read-out: Concentration of Compound I (solubility)): 1660 µg/mL (≈ 3430 µM); solubility at 7 days (cyclodextrin solution, aqueous with cosolvent or surfactant or cyclodextrin, HPβCD 150 mM, 37° C., 7 days, read-out: Concentration of Compound I (solubility)): 3110 µg/mL (≈ 6400 µM); solubility at 7 days (cyclodextrin solution, aqueous with cosolvent or surfactant or cyclodextrin, HPβCD 200 mM, 37° C., 7 days, read-out: Concentration of Compound I (solubility)): 4960 µg/mL (≈ 10200 µM); solubility at 7 days (cyclodextrin solution, aqueous with cosolvent or surfactant or cyclodextrin, RMβCD 25 mM, 37° C., 7 days, read-out: Concentration of Compound I (solubility)): 527 µg/mL (≈ 1080 µM); solubility at 7 days (cyclodextrin solution, aqueous with cosolvent or surfactant or cyclodextrin, RMβCD 50 mM, 37° C., 7 days, read-out: Concentration of Compound I (solubility)): 1530 µg/mL (≈ 3150 µM); solubility at 7 days (cyclodextrin solution, aqueous with cosolvent or surfactant or cyclodextrin, RMβCD 75 mM, 37° C., 7 days, read-out: Concentration of Compound I (solubility)): 3010 µg/mL (≈ 6200 µM); solubility at 7 days (cyclodextrin solution, aqueous with cosolvent or surfactant or cyclodextrin, RMβCD 100 mM, 37° C., 7 days, read-out: Concentration of Compound I (solubility)): 4680 µg/mL (≈ 9630 µM); solubility at 7 days (cyclodextrin solution, aqueous with cosolvent or surfactant or cyclodextrin, RMβCD 150 mM, 37° C., 7 days, read-out: Concentration of Compound I (solubility)): 8320 µg/mL (≈ 17100 µM); solubility at 7 days (cyclodextrin solution, aqueous with cosolvent or surfactant or cyclodextrin, RMβCD 200 mM, 37° C., 7 days, read-out: Concentration of Compound I (solubility)): 12000 µg/mL (≈ 24600 µM); solubility at 7 days (cyclodextrin solution, aqueous with cosolvent or surfactant or cyclodextrin, concentrations above 8 mM βCD, read-out: Solubility of additional complex of 1:2 stoichiometry (Cpd. I: βCD)): 1.5 µg/mL (≈ 3.09 µM); solubility at 7 days (cyclodextrin solution, aqueous with cosolvent or surfactant or cyclodextrin, in the presence of HPβCD, CD 2 mM, 37° C., 7 days, read-out: Concentration of Compound I (solubility)): 2.4 µg/mL; solubility at 7 days (cyclodextrin solution, aqueous with cosolvent or surfactant or cyclodextrin, in the presence of HPβCD, CD 4 mM, 37° C., 7 days, read-out: Concentration of Compound I (solubility)): 6.8 µg/mL; solubility at 7 days (cyclodextrin solution, aqueous with cosolvent or surfactant or cyclodextrin, in the presence of HPβCD, CD 8 mM, 37° C., 7 days, read-out: Concentration of Compound I (solubility)): 6.6 µg/mL; solubility at 7 days (cyclodextrin solution, aqueous with cosolvent or surfactant or cyclodextrin, in the presence of HPβCD, CD 10 mM, 37° C., 7 days, read-out: Concentration of Compound I (solubility)): 3.4 µg/mL; solubility at 7 days (cyclodextrin solution, aqueous with cosolvent or surfactant or cyclodextrin, in the presence of HPβCD, CD 12 mM, 37° C., 7 days, read-out: Concentration of Compound I (solubility)): 1.6 µg/mL; solubility at 7 days (cyclodextrin solution, aqueous with cosolvent or surfactant or cyclodextrin, in the presence of HPβCD, CD 16 mM, 37° C., 7 days, read-out: Concentration of Compound I (solubility)): 1.5 µg/mL; solubility at 7 days (cyclodextrin solution, aqueous with cosolvent or surfactant or cyclodextrin, γCD 10 mM, 37° C., 7 days, read-out: Concentration of Compound I (solubility)): 1.3 µg/mL (≈ 2.68 µM); solubility at 7 days (cyclodextrin solution, aqueous with cosolvent or surfactant or cyclodextrin, γCD 100 mM, 37° C., 7 days, read-out: Concentration of Compound I (solubility)): 19.5 µg/mL (≈ 40.2 µM); solubility at 7 days (cyclodextrin solution, aqueous with cosolvent or surfactant or cyclodextrin, γCD 200 mM, 37° C., 7 days, read-out: Concentration of Compound I (solubility)): 29.1 µg/mL (≈ 59.9 µM); solubility at 7 days (water without cyclodextrin, water, without cyclodextrin, read-out: Solubility in water): < 0.6 µg/mL; solubility at 7 days (βCD solution, aqueous with cosolvent or surfactant or cyclodextrin, βCD, maximum concentration used 4 mM, read-out: Maximum solubility): 6.8 µg/mL (≈ 14 µM); solubility at 7 days (γCD solution, aqueous with cosolvent or surfactant or cyclodextrin, γCD 25 mM, 37° C., 7 days, read-out: Concentration of Compound I (solubility)): 3.2 µg/mL (≈ 6.59 µM); solubility at 7 days (γCD solution, aqueous with cosolvent or surfactant or cyclodextrin, γCD 50 mM, 37° C., 7 days, read-out: Concentration of Compound I (solubility)): 11.4 µg/mL (≈ 23.5 µM); solubility at 7 days (γCD solution, aqueous with cosolvent or surfactant or cyclodextrin, γCD 75 mM, 37° C., 7 days, read-out: Concentration of Compound I (solubility)): 13.6 µg/mL (≈ 28 µM); solubility at 7 days (γCD solution, aqueous with cosolvent or surfactant or cyclodextrin, γCD, maximum concentration used 200 mM, read-out: Maximum solubility): 29.1 µg/mL (≈ 59.9 µM)
